Results published in patent US10144742B2 (Millennium Pharmaceuticals, Inc., priority 2014, dated 2018).
Like-named read-outs stand apart in the source and are kept apart here.

Key:
[1] = target: hNAMPT protein (Homo sapiens (Human), UniProt P43490); assay: NAMPT enzyme assay (TR-FRET/HTRF, BodiPY ligand, anti 6His-Tb); format: binding; conditions: for IC50: read-out: IC50; for inhibition at 1 µM: read-out: Percent Inhibition
In short: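 TR-FRET binding assay in which His-tagged human NAMPT with anti-6His-Tb is displaced by compound from a BodiPY ligand, incubated 1 h at rt in the dark. Excitation was at 320 nm, with the 520/486 nm emission ratio read. IC50 was fitted from inhibition relative to DMSO controls.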

[2] = system: PC3 cells; assay: PC3 growth inhibition (Cell-titer glo, 72 hours); format: cell-based; conditions: Homo sapiens, PC-3, PC3 cells, 72 hours, Cell-titer glo, read-out: Percent Inhibition (PC3 growth inhibition); for inhibition at 1 µM: compound concentration 1 μM; for inhibition at 1.667 µM: compound concentration 1.667 μM
In short: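 PC3 cells in RPMI1640 seeded overnight at 37 °C, 5% CO2, then exposed to compound diluted in AIM serum-free medium for 72 h. Viability by CellTiter-Glo luminescence vs DMSO controls; single-concentration % remaining viability (1 μM or 1.667 μM), or GI50/LD50 from curves.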

[3] = NAMPT inhibition at compound concentration 1 μM
[4] = NAMPT inhibition, IC50 range class

Sequence of hNAMPT protein (P43490 whole entry): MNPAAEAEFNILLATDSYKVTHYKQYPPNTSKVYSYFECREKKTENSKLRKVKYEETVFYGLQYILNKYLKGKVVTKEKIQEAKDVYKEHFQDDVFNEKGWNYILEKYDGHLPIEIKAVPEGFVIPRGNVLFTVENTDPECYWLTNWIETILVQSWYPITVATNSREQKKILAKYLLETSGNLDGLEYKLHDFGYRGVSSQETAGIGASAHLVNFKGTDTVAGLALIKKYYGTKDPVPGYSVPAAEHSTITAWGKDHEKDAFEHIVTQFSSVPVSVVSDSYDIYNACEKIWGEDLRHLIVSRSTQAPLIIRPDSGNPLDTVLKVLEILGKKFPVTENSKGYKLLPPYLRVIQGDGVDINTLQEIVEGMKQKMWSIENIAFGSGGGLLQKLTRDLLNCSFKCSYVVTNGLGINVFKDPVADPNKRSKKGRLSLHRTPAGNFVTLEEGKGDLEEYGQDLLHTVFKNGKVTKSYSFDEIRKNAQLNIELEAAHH

Row | Structure (SMILES) | IC50 ([1]; NAMPT IC50 range class) [nM] | inhibition at 1 µM ([1]; compound concentration 1 μM) [%] | inhibition at 1 µM [2] [%] | inhibition at 1.667 µM [2] [%] | inhibition at 1 µM [1, 3] [%] | IC50 [1, 4] [nM]
1 | O=C(NCCCn1ccnc1)c1ccc2nc(N3CCCC3)c(-c3ccccc3)nc2c1 [Compound I-206, N-[3-(1H-imidazol-1-yl)propyl]-3-phenyl-2-(pyrrolidin-1-yl)quinoxaline-6-carboxamide] | 100 to 500 | 75 | -7 | – | – | –
2 | O=C(NCCCn1ccnc1)c1ccc2nc(-c3ccccc3)c(-c3ccccc3)nc2c1 [Compound I-261, N-[3-(1H-imidazol-1-yl)propyl]-2,3-diphenylquinoxaline-6-carboxamide] | 100 to 500 | 67 | -1 | – | – | –
3 | O=C(NCCCc1cncnc1)c1ccc2nc(N3CCCCC3)c(-c3ccc(F)cc3)nc2c1 [Compound I-138, 3-(4-fluorophenyl)-2-(piperidin-1-yl)-N-[3-(pyrimidin-5-yl)propyl]quinoxaline-6-carboxamide] | 100 to 500 | 86 | – | > 99 | – | –
4 | O=C(NCCOc1cccnc1)c1ccc2nc(N3CCC(N4CCOCC4)CC3)c(-c3ccc(F)cc3)nc2c1 [Compound I-221, 3-(4-fluorophenyl)-2-[4-(morpholin-4-yl)piperidin-1-yl]-N-[2-(pyridin-3-yloxy)ethyl]quinoxaline-6-carboxamide] | < 100 | > 99 | – | 2 | – | –
5 | O=C(NCc1cn2cccnc2n1)c1ccc2nc(N3CCC(N4CCOCC4)CC3)c(-c3ccc(F)cc3)nc2c1 [Compound I-204, 3-(4-fluorophenyl)-N-(imidazo[1,2-a]pyrimidin-2-ylmethyl)-2-[4-(morpholin-4-yl)piperidin-1-yl]quinoxaline-6-carboxamide] | < 100 | > 99 | – | 63 | – | –
6 | O=C(NCCCc1ncc[nH]1)c1ccc2nc(O[C@@H]3CCOC3)c(-c3ccc(Cl)cc3)nc2c1 [Compound I-352, 3-(4-chlorophenyl)-N-[3-(1H-imidazol-2-yl)propyl]-2-[(3R)-tetrahydrofuran-3-yloxy]quinoxaline-6-carboxamide] | < 100 | 99 | – | 2 | – | –
7 | O=C(NCCCn1ccnc1)c1ccc2nc(N3CCC(N4CCNCC4)CC3)c(-c3ccccc3)nc2c1 [Compound I-112, N-[3-(1H-imidazol-1-yl)propyl]-3-phenyl-2-[4-(piperazin-1-yl)piperidin-1-yl]quinoxaline-6-carboxamide] | < 100 | 100 | -1 | – | – | –
8 | O=C(NCCCn1ccnc1)c1ccc2nc(N3CCN4CCCC4C3)c(-c3ccccc3)nc2c1 (stereo not drawn) [Compound I-146, 2-(hexahydropyrrolo[1,2-a]pyrazin-2(1H)-yl)-N-[3-(1H-imidazol-1-yl)propyl]-3-phenylquinoxaline-6-carboxamide] | 100 to 500 | 76 | -7 | – | – | –
9 | O=C(NCCCc1ncc[nH]1)c1ccc2nc(OCC3CC4(COC4)C3)c(-c3ccc(F)cc3)nc2c1 [Compound I-378, 3-(4-fluorophenyl)-N-[3-(1H-imidazol-2-yl)propyl]-2-(2-oxaspiro[3.3]hept-6-ylmethoxy)quinoxaline-6-carboxamide] | < 100 | > 99 | – | 2 | – | –
10 | Cc1ccc(F)cc1-c1nc2cc(C(=O)NCCCc3ncc[nH]3)ccc2nc1-c1ccc(F)cc1 [Compound I-336, 3-(5-fluoro-2-methylphenyl)-2-(4-fluorophenyl)-N-[3-(1H-imidazol-2-yl)propyl]quinoxaline-6-carboxamide] | 100 to 500 | 88 | – | 1 | – | –
11 | O=C(NCCCc1ncc[nH]1)c1ccc2nc(OC3CCCC3)c(-c3ccc(F)cc3)nc2c1 [Compound I-400, 2-(cyclopentyloxy)-3-(4-fluorophenyl)-N-[3-(1H-imidazol-2-yl)propyl]quinoxaline-6-carboxamide] | – | – | – | 2 | 97 | < 100
12 | Cc1ccc(Cl)c(-c2nc3cc(C(=O)NCCCc4ncc[nH]4)ccc3nc2-c2ccc(F)cc2)c1 [Compound I-365, 3-(2-chloro-5-methylphenyl)-2-(4-fluorophenyl)-N-[3-(1H-imidazol-2-yl)propyl]quinoxaline-6-carboxamide] | < 100 | 97 | – | 1 | – | –
13 | O=C(NCCCn1ccnc1)c1ccc2nc(-c3ccc(Cl)cc3)c(-c3ccccc3)nc2c1 [Compound I-45, 2-(4-chlorophenyl)-N-[3-(1H-imidazol-1-yl)propyl]-3-phenylquinoxaline-6-carboxamide] | 100 to 500 | 50 | -6 | – | – | –
14 | O=C(NCCCn1ccnc1)c1ccc2nc(-c3ccccc3)c(NCc3ccccc3)nc2c1 [Compound I-191, 3-(benzylamino)-N-[3-(1H-imidazol-1-yl)propyl]-2-phenylquinoxaline-6-carboxamide] | 2000 to 10000 | 16 | 24 | – | – | –
15 | O=C(c1ccc2nc(-c3ccc(F)cc3)c(-c3ccc(F)cc3)nc2c1)N1CCc2nocc2C1 [Compound I-266, [2,3-bis(4-fluorophenyl)quinoxalin-6-yl](6,7-dihydroisoxazolo[4,3-c]pyridin-5(4H)-yl)methanone] | 2000 to 10000 | 15 | 104 | – | – | –
16 | O=C(NCCCc1ncc[nH]1)c1ccc2nc(-n3ccnn3)c(-c3ccc(F)cc3)nc2c1 [Compound I-374, 3-(4-fluorophenyl)-N-[3-(1H-imidazol-2-yl)propyl]-2-(1H-1,2,3-triazol-1-yl)quinoxaline-6-carboxamide] | 100 to 500 | 75 | – | 3 | – | –
17 | O=C(NCCCn1ccnc1)c1ccc2nc(N3CC4CC4C3)c(-c3ccccc3)nc2c1 (stereo not drawn) [Compound I-159, 2-(3-azabicyclo[3.1.0]hex-3-yl)-N-[3-(1H-imidazol-1-yl)propyl]-3-phenylquinoxaline-6-carboxamide] | 100 to 500 | 71 | -6 | – | – | –
18 | COC1CCN(c2nc3ccc(C(=O)NCCCc4ncc[nH]4)cc3nc2-c2ccc(F)cc2)C1 (stereo not drawn) [Compound I-457, 3-(4-fluorophenyl)-N-[3-(1H-imidazol-2-yl)propyl]-2-(3-methoxypyrrolidin-1-yl)quinoxaline-6-carboxamide] | – | – | – | 2 | 98 | < 100
19 | N#Cc1cccc(-c2nc3cc(C(=O)NCCCc4ncc[nH]4)ccc3nc2-c2ccc(F)cc2)c1 [Compound I-458, 3-(3-cyanophenyl)-2-(4-fluorophenyl)-N-[3-(1H-imidazol-2-yl)propyl]quinoxaline-6-carboxamide] | – | – | – | 2 | 81 | 100 to 500
20 | O=C(NCCCc1ncc[nH]1)c1ccc2nc(OCC3CCC3)c(-c3ccc(F)cc3)nc2c1 [Compound I-329, 2-(cyclobutylmethoxy)-3-(4-fluorophenyl)-N-[3-(1H-imidazol-2-yl)propyl]quinoxaline-6-carboxamide] | < 100 | 95 | – | 3 | – | –
21 | O=C(NCCCn1ccnc1)c1ccc2nc(N3Cc4ccccc4C3)c(-c3ccccc3)nc2c1 [Compound I-11, 2-(1,3-dihydro-2H-isoindol-2-yl)-N-[3-(1H-imidazol-1-yl)propyl]-3-phenylquinoxaline-6-carboxamide] | 100 to 500 | 85 | -7 | – | – | –
